Measured values from patent publication US9302999B2, “Substituted triazoles as herbicides” (E. I. DU PONT DE NEMOURS AND COMPANY, priority 2012, dated 2016).

What was measured:
Assay type in all cases: in vivo
[1] = system: morningglory (Ipomoea spp.); experiment: Test A pre-/postemergence: morningglory
Outline: (§1)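 Rating scale 0–100 (100 = complete control), visual, ~10 days after application in the greenhouse. Applications: preemergence directed soil spray; postemergence at 1–2 leaves.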

[2] = system: wheat (Triticum aestivum); experiment: Test A pre-/postemergence: wheat
Outline: as §1

[3] = system: sedge, umbrella (small-flower umbrella sedge Cyperus difformis); experiment: Test B flooded paddy: sedge, umbrella; details: Flood, applied to paddy water at 2-leaf stage, visually evaluated after 13 to 15 days
Outline: (§2)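 Visual ratings (0 = no effect, 100 = complete control) versus untreated controls were taken 13–15 days after treatment of greenhouse plants. Treatment was added to paddy water held at 3 cm depth on 2-leaf-stage seedlings.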

[4] = system: corn (Zea mays); experiment: Test A pre-/postemergence: corn
Outline: as §1

[5] = system: velvetleaf (Abutilon theophrasti); experiment: Test A pre-/postemergence: velvetleaf
Outline: as §1

[6] = system: crabgrass, large (large crabgrass, Digitaria sanguinalis); experiment: Test A pre-/postemergence: crabgrass, large
Outline: as §1

[7] = system: barnyardgrass (Echinochloa crus-galli); experiment: Test B flooded paddy: barnyardgrass; details: Flood, applied to paddy water at 2-leaf stage, visually evaluated after 13 to 15 days
Experimental: (§3) Seeds selected from rice (Oryza sativa), sedge, umbrella (small-flower umbrella sedge Cyperus difformis), ducksalad (Heteranthera limosa), and barnyardgrass (Echinochloa crus-galli) were grown to the 2-leaf stage for testing. At time of treatment, test pots were flooded to 3 cm above the soil surface, treated by application of test compounds directly to the paddy water, and then maintained at that water depth for the duration of the test.
(§4) Treated plants and controls were maintained in a greenhouse for 13 to 15 days, after which time all species were compared to controls and visually evaluated. Plant response ratings, summarized in Table B, are based on a scale of 0 to 100 where 0 is no effect and 100 is complete control. A dash (-) response means no test result.

[8] = system: barnyardgrass (Echinochloa crus-galli); experiment: Test A pre-/postemergence: barnyardgrass
Outline: as §1

[9] = system: foxtail, giant (giant foxtail, Setaria faberii); experiment: Test A pre-/postemergence: foxtail, giant
Outline: as §1

[10] = system: rice (Oryza sativa); experiment: Test B flooded paddy: rice; details: Flood, applied to paddy water at 2-leaf stage, visually evaluated after 13 to 15 days
Experimental: as §3, §4

[11] = system: ducksalad (Heteranthera limosa); experiment: Test B flooded paddy: ducksalad; details: Flood, applied to paddy water at 2-leaf stage, visually evaluated after 13 to 15 days
Outline: as §2

[12] = system: pigweed (Amaranthus retroflexus); experiment: Test A pre-/postemergence: pigweed
Outline: as §1

[13] = Postemergence, 125 g ai/ha, 0 to 100 scale, 0 is no effect, 100 is complete control
[14] = Postemergence, 500 g ai/ha, visual rating on 0 to 100 scale (0 no effect, 100 complete control), approximately ten days
[15] = Preemergence, 125 g ai/ha, 0 to 100 scale where 0 is no effect and 100 is complete control
[16] = Preemergence, 500 g ai/ha, 0 to 100 scale (0 no effect, 100 complete control)
[17] = Postemergence, 500 g ai/ha, 0 to 100 scale, 0 is no effect, 100 is complete control

Compound	Plant response rating, Morningglory [1, 13]	Plant response rating, Morningglory [1, 15]	Plant response rating, Morningglory [1, 16]	Plant response rating, Wheat [2, 13]	Plant response rating, Wheat [2, 15]	Plant response rating, Wheat [2, 16]	Plant response rating, Corn [4, 13]	Plant response rating, Corn [4, 15]	Plant response rating, Corn [4, 16]	Plant response rating, Velvetleaf [5, 13]	Plant response rating, Velvetleaf [5, 15]	Plant response rating, Velvetleaf [5, 16]	Plant response rating, Crabgrass, Large [6, 13]	Plant response rating, Crabgrass, Large [6, 15]	Plant response rating, Crabgrass, Large [6, 16]	Plant response rating, Barnyardgrass [8, 13]	Plant response rating, Barnyardgrass [8, 15]	Plant response rating, Barnyardgrass [8, 16]	Plant response rating, Foxtail, Giant [9, 13]	Plant response rating, Foxtail, Giant [9, 15]	also measured
CC(C)c1nn(-c2ccc(F)cc2)nc1Cc1ccnc(C(F)(F)F)c1 [Compound 151]	40	0	0	0	0	0	10	0	0	30	0	0	10	0	10	10	0	0	10	0	Morningglory plant response rating [1, 14]: 70; Wheat plant response rating [2, 14]: 0; Plant response rating, Sedge, Umbrella (0 to 100 scale, 0 is no effect, 100 is complete control) ([3]; 250 g ai/ha): 0; Corn plant response rating [4, 14]: 20; Velvetleaf plant response rating [5, 14]: 50; Crabgrass, Large plant response rating [6, 14]: 30; Plant response rating, Barnyardgrass (0 to 100 scale, 0 is no effect, 100 is complete control) ([7]; 250 g ai/ha): 0; Barnyardgrass plant response rating [8, 14]: 20; Foxtail, Giant plant response rating [9, 14]: 30; Plant response rating, Foxtail, Giant [9, 16]: 20; Plant response rating, Rice (0 to 100 scale, 0 is no effect, 100 is complete control) ([10]; 250 g ai/ha): 30; Plant response rating, Ducksalad (0 to 100 scale, 0 is no effect, 100 is complete control) ([11]; 250 g ai/ha): 0; Plant response rating, Pigweed [12, 13]: 60; Pigweed plant response rating [12, 14]: 80; Plant response rating, Pigweed [12, 15]: 10; Plant response rating, Pigweed [12, 16]: 60
CC(C)Cc1nn(-c2ccc(C(F)(F)F)cc2)nc1Oc1ccnc(C(F)F)c1 [Compound 187]	0	0	0	0	0	0	0	0	0	0	0	0	0	0	0	0	0	0	0	0	Morningglory plant response rating [1, 17]: 0; Wheat plant response rating [2, 17]: 0; Plant response rating, Sedge, Umbrella (0 to 100 scale, 0 is no effect, 100 is complete control) ([3]; 125 g ai/ha): 0; Corn plant response rating [4, 17]: 0; Velvetleaf plant response rating [5, 17]: 0; Crabgrass, Large plant response rating [6, 17]: 0; Plant response rating, Barnyardgrass (0 to 100 scale, 0 is no effect, 100 is complete control) ([7]; 125 g ai/ha): 0; Barnyardgrass plant response rating [8, 17]: 0; Foxtail, Giant plant response rating [9, 17]: 0; Plant response rating, Foxtail, Giant [9, 16]: 0; Plant response rating, Rice (0 to 100 scale, 0 is no effect, 100 is complete control) ([10]; 125 g ai/ha): 0; Plant response rating, Ducksalad (0 to 100 scale, 0 is no effect, 100 is complete control) ([11]; 125 g ai/ha): 0; Plant response rating, Pigweed [12, 13]: 0; Pigweed plant response rating [12, 17]: 0; Plant response rating, Pigweed [12, 15]: 0; Plant response rating, Pigweed [12, 16]: 0
Cc1nn(-c2ccc(C(F)(F)F)cn2)nc1C(=NO)c1cccc(C(F)(F)F)c1 [Compound 201]	10	0	0	0	0	0	10	0	0	20	0	0	20	0	20	0	0	0	0	0	Morningglory plant response rating [1, 17]: 50; Wheat plant response rating [2, 17]: 10; Plant response rating, Sedge, Umbrella (0 to 100 scale, 0 is no effect, 100 is complete control) ([3]; 250 g ai/ha): 0; Corn plant response rating [4, 17]: 20; Velvetleaf plant response rating [5, 17]: 40; Crabgrass, Large plant response rating [6, 17]: 30; Plant response rating, Barnyardgrass (0 to 100 scale, 0 is no effect, 100 is complete control) ([7]; 250 g ai/ha): 0; Barnyardgrass plant response rating [8, 17]: 10; Foxtail, Giant plant response rating [9, 17]: 10; Plant response rating, Foxtail, Giant [9, 16]: 20; Plant response rating, Rice (0 to 100 scale, 0 is no effect, 100 is complete control) ([10]; 250 g ai/ha): 0; Plant response rating, Ducksalad (0 to 100 scale, 0 is no effect, 100 is complete control) ([11]; 250 g ai/ha): 0; Plant response rating, Pigweed [12, 13]: 60; Pigweed plant response rating [12, 17]: 100; Plant response rating, Pigweed [12, 15]: 0; Plant response rating, Pigweed [12, 16]: 10
COCc1nn(-c2ccc(F)cc2)nc1Oc1ccnc(C(F)(F)F)c1 [Compound 161]	30	10	10	10	0	10	10	10	10	40	0	50	70	100	100	30	20	60	60	100	Morningglory plant response rating [1, 14]: 50; Wheat plant response rating [2, 14]: 30; Plant response rating, Sedge, Umbrella (0 to 100 scale, 0 is no effect, 100 is complete control) ([3]; 125 g ai/ha): 80; Corn plant response rating [4, 14]: 30; Velvetleaf plant response rating [5, 14]: 80; Crabgrass, Large plant response rating [6, 14]: 90; Plant response rating, Barnyardgrass (0 to 100 scale, 0 is no effect, 100 is complete control) ([7]; 125 g ai/ha): 0; Barnyardgrass plant response rating [8, 14]: 70; Foxtail, Giant plant response rating [9, 14]: 90; Plant response rating, Foxtail, Giant [9, 16]: 100; Plant response rating, Rice (0 to 100 scale, 0 is no effect, 100 is complete control) ([10]; 125 g ai/ha): 20; Plant response rating, Ducksalad (0 to 100 scale, 0 is no effect, 100 is complete control) ([11]; 125 g ai/ha): 0; Plant response rating, Pigweed [12, 13]: 100; Pigweed plant response rating [12, 14]: 100; Plant response rating, Pigweed [12, 15]: 100; Plant response rating, Pigweed [12, 16]: 100
